Values joined by “and” are separate entries in the source; they are usually repeats but may differ in a detail not shown here. Identical values can stand only once. Inconclusive results and toxic doses are left out. The calls were made as follows: active = survival T/C of 150% or more; inactive = T/C below 125% in these data.
System: P388 leukemia ip, CD2F1 mice, survival T/C
Test: NCI In Vivo Anticancer Drug Screen. Data for tumor model P388 Leukemia (intraperitoneal) in CD2F1 (CDF1) mice
Details: endpoint: median survival time, higher = longer survival
Procedure, shortened: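 Mice carrying the transplanted tumor received test compound or vehicle. Survival was recorded in each group, and the value is the treated-group measurement divided by that of the vehicle-treated control group.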

[1] = dose: 3.75 mg/kg/injection, schedule: Q01DX009 (ip), vehicle: saline with Tween-80
[2] = dose: 50.0 mg/kg/injection, schedule: Q01DX005 (ip), vehicle: saline
[3] = dose: 100.0 mg/kg/injection, schedule: Q01DX005 (ip), vehicle: saline
[4] = dose: 200.0 mg/kg/injection, schedule: Q01DX005 (ip), vehicle: saline
[5] = dose: 50.0 mg/kg/injection, schedule: Q01DX005 (ip), vehicle: Klucel (hydroxypropylcellulose) (HPC)
[6] = dose: 100.0 mg/kg/injection, schedule: Q01DX005 (ip), vehicle: Klucel (hydroxypropylcellulose) (HPC)
[7] = dose: 100.0 mg/kg/injection, schedule: Q01DX001 (ip), vehicle: saline with Tween-80
[8] = dose: 200.0 mg/kg/injection, schedule: Q01DX001 (ip), vehicle: saline with Tween-80
[9] = dose: 400.0 mg/kg/injection, schedule: Q01DX001 (ip), vehicle: saline with Tween-80
[10] = dose: 50.0 mg/kg/injection, schedule: Q01DX005 (ip), vehicle: saline with Tween-80
[11] = dose: 100.0 mg/kg/injection, schedule: Q01DX005 (ip), vehicle: saline with Tween-80

Measured: T/C

NC(=O)c1ccc(NC(=O)/C=C/C(=O)Nc2ccc(C(N)=O)cn2)nc1
inactive: dose: 1.65 mg/kg/injection, schedule: Q01DX009 (ip), vehicle: saline with Tween-80 109 % of control | dose: 2.5 mg/kg/injection, schedule: Q01DX009 (ip), vehicle: saline with Tween-80 118 % of control | dose: 2.5 mg/kg/injection, schedule: Q04DX003 (ip), vehicle: saline with Tween-80 100 % of control | [1] 104 % of control | dose: 5.0 mg/kg/injection, schedule: Q04DX003 (ip), vehicle: saline with Tween-80 100 % of control | dose: 10.0 mg/kg/injection, schedule: Q04DX003 (ip), vehicle: saline with Tween-80 100 % of control and 118 % of control | dose: 20.0 mg/kg/injection, schedule: Q04DX003 (ip), vehicle: saline with Tween-80 100 % of control | dose: 625.0 micrograms/kg/injection, schedule: Q01DX009 (ip), vehicle: saline with Tween-80 104 % of control | dose: 1250.0 micrograms/kg/injection, schedule: Q01DX009 (ip), vehicle: saline with Tween-80 122 % of control

O=CN(CCC(=O)O)c1ccccc1
inactive: [2] 106 % of control | [3] 113 % of control | [4] 107 % of control

C=C1C(=O)C23C(OC(=O)c4ccccc4)C1CCC2C12COC3(O)C(O)C1C(C)(C)CCC2O (configuration not stated)
inactive: [1] 103 % of control and 107 % of control and 110 % of control | dose: 7.5 mg/kg/injection, schedule: Q01DX009 (ip), vehicle: saline with Tween-80 102 % of control and 112 % of control and 120 % of control | dose: 15.0 mg/kg/injection, schedule: Q01DX009 (ip), vehicle: saline with Tween-80 100 % of control and 118 % of control and 119 % of control | dose: 30.0 mg/kg/injection, schedule: Q01DX009 (ip), vehicle: saline with Tween-80 109 % of control and 115 % of control

O=C1NC(=O)C2(Br)Nc3ccc(Br)cc3C(=O)C2N1 (configuration not stated)
inactive: [5] 100 % of control | [6] 98 % of control | dose: 200.0 mg/kg/injection, schedule: Q01DX005 (ip), vehicle: Klucel (hydroxypropylcellulose) (HPC) 90 % of control

CCCCCC[N+](C)([O-])CCCCCC[N+](C)([O-])CCCCCC (configuration not stated)
inactive: dose: 50.0 mg/kg/injection, schedule: Q01DX009 (ip), vehicle: saline 107 % of control | dose: 100.0 mg/kg/injection, schedule: Q01DX009 (ip), vehicle: saline 101 % of control | dose: 200.0 mg/kg/injection, schedule: Q01DX009 (ip), vehicle: saline 97 % of control

CC1=CC(=O)[C@@H](O)[C@]2(C)[C@H]3[C@@]4(O)OC[C@]35[C@H]([C@@H](CO)[C@H]4O)[C@@H](OC3OC(CO)C(O)C(O)C3O)C(=O)O[C@@H]5C[C@@H]12 (some centres not stated)
inactive: dose: 0.25 mg/kg/injection, schedule: Q01DX005 (ip), vehicle: Klucel (hydroxypropylcellulose) (HPC) 99 % of control | dose: 0.5 mg/kg/injection, schedule: Q01DX005 (ip), vehicle: Klucel (hydroxypropylcellulose) (HPC) 99 % of control | dose: 1.0 mg/kg/injection, schedule: Q01DX005 (ip), vehicle: Klucel (hydroxypropylcellulose) (HPC) 98 % of control | dose: 1.87 mg/kg/injection, schedule: Q01DX005 (ip), vehicle: Klucel (hydroxypropylcellulose) (HPC) 96 % of control | dose: 2.0 mg/kg/injection, schedule: Q01DX005 (ip), vehicle: Klucel (hydroxypropylcellulose) (HPC) 100 % of control

CC(=O)Nc1cc2c(=O)[nH]cnc2c([N+](=O)[O-])c1N(C)[N+](=O)[O-]
inactive: dose: 5.0 mg/kg/injection, schedule: Q01DX005 (ip), vehicle: other 101 % of control | dose: 10.0 mg/kg/injection, schedule: Q01DX005 (ip), vehicle: other 117 % of control | dose: 20.0 mg/kg/injection, schedule: Q01DX005 (ip), vehicle: other 109 % of control | dose: 40.0 mg/kg/injection, schedule: Q01DX005 (ip), vehicle: other 102 % of control

Cc1nc(Br)c(C(O)c2ccccc2)n1C (configuration not stated)
inactive: dose: 60.0 mg/kg/injection, schedule: Q01DX005 (ip), vehicle: saline with Tween-80 103 % of control | dose: 120.0 mg/kg/injection, schedule: Q01DX005 (ip), vehicle: saline with Tween-80 92 % of control | dose: 240.0 mg/kg/injection, schedule: Q01DX005 (ip), vehicle: saline with Tween-80 97 % of control

CCOC(=O)CSc1nnc(N)s1
inactive: dose: 50.0 mg/kg/injection, schedule: Q01DX009 (ip), vehicle: saline with Tween-80 121 % of control | dose: 100.0 mg/kg/injection, schedule: Q01DX009 (ip), vehicle: saline with Tween-80 116 % of control | dose: 200.0 mg/kg/injection, schedule: Q01DX009 (ip), vehicle: saline with Tween-80 98 % of control

CC1=CC(O/C=C2\C(=O)OC3c4ccccc4CC23)OC1=O (configuration not stated)
inactive: dose: 50.0 mg/kg/injection, schedule: Q01DX009 (ip), vehicle: suspension in saline 101 % of control | dose: 100.0 mg/kg/injection, schedule: Q01DX009 (ip), vehicle: suspension in saline 108 % of control | dose: 200.0 mg/kg/injection, schedule: Q01DX009 (ip), vehicle: suspension in saline 92 % of control

CC1CN(c2ccc(Cl)cc2)CCOC(=O)O1 (configuration not stated)
inactive: [7] 92 % of control | [8] 95 % of control | [9] 92 % of control

Cc1ccc(-n2c(O)c(N=Nc3ccccc3Cl)c(=O)n(-c3ccc(Br)cc3)c2=S)cc1
inactive: [7] 98 % of control | [8] 101 % of control | [9] 96 % of control

COc1cc2c(OC)cc1CCC1=CC(=O)C=C(CC2)C1=O
inactive: [10] 99 % of control | [11] 103 % of control | dose: 200.0 mg/kg/injection, schedule: Q01DX005 (ip), vehicle: saline with Tween-80 92 % of control

Cc1[nH]c2ccc(Br)cc2c1/C=N/NC(N)=S
inactive: dose: 100.0 mg/kg/injection, schedule: Q01DX001 (ip), vehicle: Klucel (hydroxypropylcellulose) (HPC) 101 % of control | dose: 200.0 mg/kg/injection, schedule: Q01DX001 (ip), vehicle: Klucel (hydroxypropylcellulose) (HPC) 97 % of control | dose: 400.0 mg/kg/injection, schedule: Q01DX001 (ip), vehicle: Klucel (hydroxypropylcellulose) (HPC) 90 % of control

CCC[CH2][Sn]1([CH2]CCC)[O]C(=O)CCSCCC(=O)[O]1
inactive: dose: 1.56 mg/kg/injection, schedule: Q01DX005 (ip), vehicle: saline with Tween-80 100 % of control and 106 % of control | dose: 3.12 mg/kg/injection, schedule: Q01DX005 (ip), vehicle: saline with Tween-80 109 % of control and 115 % of control and 121 % of control | dose: 6.25 mg/kg/injection, schedule: Q01DX005 (ip), vehicle: saline with Tween-80 107 % of control

CSc1nc(NN)c2cnn(C3CCCCO3)c2n1 (configuration not stated)
inactive: dose: 100.0 mg/kg/injection, schedule: Q04DX002 (ip), vehicle: saline with Tween-80 100 % of control | dose: 200.0 mg/kg/injection, schedule: Q04DX002 (ip), vehicle: saline with Tween-80 96 % of control | dose: 400.0 mg/kg/injection, schedule: Q04DX002 (ip), vehicle: saline with Tween-80 94 % of control

N/C(=N/O)NO
inactive: [2] 112 % of control and 113 % of control | [3] 122 % of control

CCOC(=O)N1C2CCC1C(C)C(=O)C2 (configuration not stated)
inactive: [2] 96 % of control | [3] 96 % of control and 104 % of control | [4] 94 % of control

CN(Cc1ccc2nc(N)[nH]c(=O)c2c1)c1ccc(C(=O)NC(CCC(=O)O)C(=O)O)cc1 (configuration not stated)
inactive: [10] 95 % of control | [11] 102 % of control

S=C1NCCOc2ccccc21
inactive: dose: 60.0 mg/kg/injection, schedule: Q01DX005 (ip), vehicle: Klucel (hydroxypropylcellulose) (HPC) 100 % of control | dose: 120.0 mg/kg/injection, schedule: Q01DX005 (ip), vehicle: Klucel (hydroxypropylcellulose) (HPC) 100 % of control

C#C/C=C/CC1O[C@H](/C=C/C)C/C=C\CC1Cl (some centres not stated)
inactive: dose: 7.8 mg/kg/injection, schedule: Q01DX005 (ip), vehicle: Klucel (hydroxypropylcellulose) (HPC) 94 % of control | dose: 15.62 mg/kg/injection, schedule: Q01DX005 (ip), vehicle: Klucel (hydroxypropylcellulose) (HPC) 99 % of control | dose: 31.25 mg/kg/injection, schedule: Q01DX005 (ip), vehicle: Klucel (hydroxypropylcellulose) (HPC) 96 % of control | dose: 62.5 mg/kg/injection, schedule: Q01DX005 (ip), vehicle: Klucel (hydroxypropylcellulose) (HPC) 88 % of control

C=C(C)C(=O)OC1CCC2Cc3occ(C)c3C(OC(=O)C(=C)C)C2(C)C1C (configuration not stated)
inactive: dose: 20.0 mg/kg/injection, schedule: Q01DX009 (ip), vehicle: saline with Tween-80 93 % of control | dose: 40.0 mg/kg/injection, schedule: Q01DX009 (ip), vehicle: saline with Tween-80 102 % of control | dose: 80.0 mg/kg/injection, schedule: Q01DX009 (ip), vehicle: saline with Tween-80 93 % of control | dose: 160.0 mg/kg/injection, schedule: Q01DX009 (ip), vehicle: saline with Tween-80 93 % of control

O=C(NC1CC1)C(Cl)Cl
inactive: [5] 103 % of control | [6] 99 % of control

From PubChem BioAssay AID330 (DTP/NCI, 2004)
